Results: patent US20240122865A1, “Methods of Protecting RNA” (Pfizer Inc., priority 2021, published 2024)
pEC50: −log10 of the molar value.

Key:
Format in all cases: biochemical, Trichoderma atroviride
[1] = system: FgenL model RNA; test: TapeStation Assay, FgenL model RNA; design: Conc. FgenL#1 / Conc. FgenL#2: unit not given here; details: for % Control N = 1 / % Control N = 2 / % Control Average: FgenL RNA, 20 mM amino acids, 50 mM CAPS pH 11, 50° C. 15 min; for % Control N = 1 / % Control N = 2: vs Time 0; for % Control Average: vs Time 0, Avg N=2; for Conc. FgenL#1 / Conc. FgenL#2: intact FgenL RNA after 15 min at 50° C.; for Conc. FgenL#1: 20 mM amino acids in 50 mM CAPS pH 11, run #1; for Conc. FgenL#2: 20 mM amino acids in 50 mM CAPS pH 11, run #2
Summary of the method: (§1)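 Chi18 or FgenL model RNA at 50 ng/μL in 50 mM CAPS pH 11 was mixed with amino acids (stocks in CAPS, readjusted to >pH 11) and heated at 50° C for 0 or 15 minutes; time-0 samples stayed on ice. Intact RNA was measured by capillary electrophoresis with optical detection and compared with a no-degradation baseline.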

[2] = system: Chi18 model RNA; test: TapeStation Assay, Chi18 model RNA; design: Conc. chi18#1 / Conc. chi18#2: unit not given here; details: for % Control N = 1 / % Control N = 2 / % Control Avg.: Chi18 RNA, 20 mM amino acids, 50 mM CAPS pH 11, 50° C. 15 min; for % Control N = 1 / % Control N = 2: vs Time 0; for % Control Avg.: vs Time 0, Avg N=2; for Conc. chi18#1 / Conc. chi18#2: intact Chi18 RNA after 15 min at 50° C.; for Conc. chi18#1: 20 mM amino acids in 50 mM CAPS pH 11, run #1; for Conc. chi18#2: 20 mM amino acids in 50 mM CAPS pH 11, run #2
Summary of the method: as §1

[3] = system: Chi18 mRNA construct; test: Size Exclusion Base Hydrolysis Degradation Assay, Chi18; details: for T0 R1 peak area at 250 nm: Chi18 0.1 mg/mL, 25 mM amino acid, 50 mM CAPS, T=0, replicate 1; for T2 Avg, peak area as percentage of T=0 / T2 R1 peak area at 250 nm / T10 Avg, peak area as percentage of T=0 / T10 R1 peak area at 250 nm / T24 Avg, peak area as percentage of T=0 / T24 R1 peak area at 250 nm / T0 Avg, peak area as percentage of T=0: Chi18, 25 mM amino acid; for T2 Avg, peak area as percentage of T=0 / T2 R1 peak area at 250 nm / T10 Avg, peak area as percentage of T=0 / T10 R1 peak area at 250 nm / T24 Avg, peak area as percentage of T=0 / T24 R1 peak area at 250 nm: 50 mM CAPS pH 11, room temperature; for T2 Avg, peak area as percentage of T=0 / T2 R1 peak area at 250 nm: 2 hrs; for T2 R1 peak area at 250 nm / T10 R1 peak area at 250 nm / T24 R1 peak area at 250 nm: replicate 1; for T10 Avg, peak area as percentage of T=0 / T10 R1 peak area at 250 nm: 10 hrs; for T24 Avg, peak area as percentage of T=0 / T24 R1 peak area at 250 nm: 24 hrs; for T0 Avg, peak area as percentage of T=0: T=0 (reference)
Experimental: Basic assay procedure: RNA samples were diluted to 1.0 mg/mL in DNAase/RNAase free water. Amino acids were dissolved in water to a stock solution of 100 mM and a solution of 500 mM CAPS pH 11 was used. The two mRNA constructs tested were FgenL and Chi18. Each individual sample volume was 50 μL. To determine the amount of 1 M NaOH needed to adjust the final pH to 11.0 after the addition of all sample components, the sample volume was increased 100 fold (5 mL), the volume of 1 M NaOH recorded and this value was translated back down to the 50 μL sample volume.
The mRNA and amino acid were allowed to incubate for one hour prior to the addition of CAPS pH 11. All steps of the assay were conducted at room temperature.
Degradation reaction: After the CAPS addition, the samples were injected onto the Waters H-Class UPLC system to record the first timepoint, T=O. This resulting chromatogram was processed by integrating the area of absorbance at 250 nm for the mRNA construct. Immediately following this timepoint, the pH was adjusted to 11. Subsequent time points (2 hrs, 10 hrs, and 24 hrs) recorded the Absorbance Units (peak area) at 250 nm as a percentage of the peak area determined at T=O. Integration of the chromatogram for subsequent timepoints was conducted by analyzing the area of absorbance at 250 nm contained within the same time window in which the peak eluted in T=0 for the 100% intact mRNA.

[4] = molecular target: Chi18 model RNA; test: Droplet Digital Polymerase Chain Reaction (ddPCR) Assay, Chi18; details: percent protection, pH 11.0, 30° C., 16 hours, n = 2
Summary of the method: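 Chi18 (25 fg/μL) or FgenL (10 fg/μL) RNA at pH 11.0 incubated 16 h with amino acids (10-point half-log series, ~300 mM top stock in CAPS), at 30° C or 44° C respectively. Intact RNA reverse-transcribed, ddPCR 5′-positive droplet fraction taken as protection; EC50 from four-parameter logistic fit.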

For `NCCCC[C@H](N)C(=O)O` [Lysine], the “% Control N = 1” value [1] was 19.9%, the “% Control N = 2” value [1] was 17.6% and the “% Control Average” value [1] was 18.7%. The “Conc. FgenL#1” value [1] was 6.85, the “Conc. FgenL#2” value [1] was 6.12 and the “% Control N = 1” value [2] was 22.0%. The “% Control N = 2” value [2] was 15.5%, the “% Control Avg.” value [2] was 18.7% and the “Conc. chi18#1” value [2] was 11.7. The “Conc. chi18#2” value [2] was 8.18, the “T0 R1 peak area at 250 nm” value [3] was 24122 and the “T2 Avg, peak area as percentage of T=0” value [3] was 0.0%. The “T2 R1 peak area at 250 nm” value [3] was 0, the “T10 Avg, peak area as percentage of T=0” value [3] was 0.0% and the “T10 R1 peak area at 250 nm” value [3] was 0. For the same compound, the “T24 Avg, peak area as percentage of T=0” value [3] was 0.0%, the “T24 R1 peak area at 250 nm” value [3] was 0 and the “T0 Avg, peak area as percentage of T=0” value [3] was 100.0%. The pEC50 [4] was < 1.52.
`CSCC[C@H](N)C(=O)O` [Methionine] was tested, and the “% Control N = 1” value [1] was 35.4%, the “% Control N = 2” value [1] was 32.6% and the “% Control Average” value [1] was 34.0%. For the same compound, the “Conc. FgenL#1” value [1] was 12.2, the “Conc. FgenL#2” value [1] was 11.3 and the “% Control N = 1” value [2] was 49.7%. The “% Control N = 2” value [2] was 49.7%, the “% Control Avg.” value [2] was 49.7% and the “Conc. chi18#1” value [2] was 26.5. The “T0 R1 peak area at 250 nm” value [3] was 17259, the “T2 Avg, peak area as percentage of T=0” value [3] was 63.5% and the “T2 R1 peak area at 250 nm” value [3] was 8392. The “T10 Avg, peak area as percentage of T=0” value [3] was 40.1%, the “T10 R1 peak area at 250 nm” value [3] was 6837 and the “T24 Avg, peak area as percentage of T=0” value [3] was 0.0%. The “T24 R1 peak area at 250 nm” value [3] was 0, the “T0 Avg, peak area as percentage of T=0” value [3] was 100.0% and the pEC50 [4] was < 1.52.
For `N[C@@H](Cc1ccccc1)C(=O)O` [Phenylalanine], the “% Control N = 1” value [1] was 13.8%, the “% Control N = 2” value [1] was 6.9% and the “% Control Average” value [1] was 10.4%. The “Conc. FgenL#1” value [1] was 4.76, the “Conc. FgenL#2” value [1] was 2.4 and the “% Control N = 1” value [2] was 17.2%. The “% Control N = 2” value [2] was 25.3%, the “% Control Avg.” value [2] was 21.3% and the “Conc. chi18#1” value [2] was 9.19. For the same compound, the “Conc. chi18#2” value [2] was 13.4, the “T0 R1 peak area at 250 nm” value [3] was 30537 and the “T2 Avg, peak area as percentage of T=0” value [3] was 72.1%. For the same compound, the “T2 R1 peak area at 250 nm” value [3] was 22175, the “T10 Avg, peak area as percentage of T=0” value [3] was 16.3% and the “T10 R1 peak area at 250 nm” value [3] was 3615. The “T24 Avg, peak area as percentage of T=0” value [3] was 0.0%, the “T24 R1 peak area at 250 nm” value [3] was 0 and the “T0 Avg, peak area as percentage of T=0” value [3] was 100.0%. The pEC50 [4] was < 1.74.
With `O=C(O)[C@@H]1CCCN1` [Proline] the “% Control N = 1” value [1] was 21.8%, the “% Control N = 2” value [1] was 20.3% and the “% Control Average” value [1] was 21.0%. For the same compound, the “Conc. FgenL#1” value [1] was 7.52, the “Conc. FgenL#2” value [1] was 7.03 and the “% Control N = 1” value [2] was 37.0%. For the same compound, the “% Control N = 2” value [2] was 34.6%, the “% Control Avg.” value [2] was 35.8% and the “Conc. chi18#1” value [2] was 19.7. The “Conc. chi18#2” value [2] was 18.3, the “T0 R1 peak area at 250 nm” value [3] was 12033 and the “T2 Avg, peak area as percentage of T=0” value [3] was 72.0%. For the same compound, the “T2 R1 peak area at 250 nm” value [3] was 7330, the “T10 Avg, peak area as percentage of T=0” value [3] was 28.5% and the “T10 R1 peak area at 250 nm” value [3] was 2712. For the same compound, the “T24 Avg, peak area as percentage of T=0” value [3] was 0.0%, the “T24 R1 peak area at 250 nm” value [3] was 0 and the “T0 Avg, peak area as percentage of T=0” value [3] was 100.0%. For the same compound, the pEC50 [4] was < 1.52.
